1 molecule from patent US20240335429A1, “MOLECULAR GLUE AND SALL4 DEGRADER” (National University of Singapore, priority 2021, published 2024) can be followed below.

In general, Dmax refers to the largest share of the target that was removed.

Assay [1] has as its target T1, SALL4B-Nluc in H1299 cells (Homo sapiens, UniProt Q96SW2+Q9UJQ4).
T1 construct: expressed in transfected cells
The assay is described as follows: Dual-luciferase SALL4B reporter cellular assay (main screen), Nluc/Fluc ratio. It is filed as cell-based. From the text: SALL4A or SALL4B was cloned into the dual-luciferase plasmid (pLL3.7-EF1a-IRES-Gateway-nluc-2xHA-IRES2-fluc-hCL1-P2A-Puro from Prof. William G. Kaelin group) to create a stable cell line (H1299, SALL4 negative) that ectopically express the SALL4A or B-NanoLuc fusion protein. SALL4A or B fused to nanoluciferase (Nluc) was expressed in a multicistronic mRNA with control firefly luciferase (Fluc). The measurement of Nluc/Fluc ratio enabled the determination of SALL4 fusion protein degradation relative to the internal Fluc control, independent of effects on transcription (FIG. 1A-B).
The assay was performed as described in Example 1 except in a 1,536-well plate which allows HTS of thermal shift hits from the primary screen, searching for SALL4 small molecule binders that can degrade the oncogenic SALL4B isoform. H1299 cells that stably express SALL4A/B_Nluc_Fluc were seeded in a 1,536-well clear bottom white plate (Corning) at 2,000 cells per well in RPMI medium (6 μL) and grown overnight (16 h) at 37° C., 5% CO2. Cells were treated with 8 μM of compounds for 6 h. Nano-Glo® Dual-Luciferase® Reporter Assay System and Pherastar plate reader were used for measuring the luciferase signal, following the manufacturer's instruction. For data analysis, the Nanoluc luminescence is normalized to firefly luciferase reading and then compared to the DMSO control. The screen was performed in triplicates.
The inventors treated H1299 cells overexpressing SALL4B_Nluc and the HCC (SNU-398, SNU-182) and NSCLC cells (H661) with increasing concentrations of QE-18-WG07 and IMiDs, and assayed the SALL4B_Nluc, as well as the endogenous SALL4A and B levels by immunoblots described in Example 4.

The target in another assay is T2, CRBN (Homo sapiens, UniProt Q96SW2).
T2 construct: endogenous in cells; host or cells: SNU-398 cell lysate
T2 sequence (Q96SW2 whole entry): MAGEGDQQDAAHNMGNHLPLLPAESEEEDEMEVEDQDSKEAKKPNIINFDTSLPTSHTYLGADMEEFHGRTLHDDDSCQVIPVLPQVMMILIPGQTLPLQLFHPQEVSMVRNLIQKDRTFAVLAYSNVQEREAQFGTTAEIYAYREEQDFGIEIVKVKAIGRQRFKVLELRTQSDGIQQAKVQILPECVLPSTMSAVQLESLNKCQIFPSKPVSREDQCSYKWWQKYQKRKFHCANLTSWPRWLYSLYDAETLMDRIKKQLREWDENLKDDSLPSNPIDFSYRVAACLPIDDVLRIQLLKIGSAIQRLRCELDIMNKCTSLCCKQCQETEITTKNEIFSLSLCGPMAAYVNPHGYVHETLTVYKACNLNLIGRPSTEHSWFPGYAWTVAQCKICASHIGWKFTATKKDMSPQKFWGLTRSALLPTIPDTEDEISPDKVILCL
In words: Cellular Thermal Shift Assay (CETSA) in SNU-398 cell lysates. Type of assay: binding. The following applies: from 51 to 56° C., read-out: overall thermal shift of CRBN. On the procedure: Cells were washed with cold PBS and harvested into 50 mL tubes and centrifuged at 1,200×g for 5 min. For cell lysis, cells were resuspended in 1× NP-40 lysis buffer containing 10 mM Tris-HCl (pH 7.4), 150 mM NaCl, 2.7 mM KCl and 0.4% NP-40, and rotated end-over-end at 4° C. for 30 min. The cell lysate was centrifuged at 20,000 rpm for 10 min at 4° C. and the supernatant was collected. The cell lysate was divided into two aliquots, with one aliquot being treated with QE-18-WG07, and the other aliquot with DMSO control. After specific incubation time at room temperature, the respective lysates were divided into smaller aliquots of 40 μL and heated individually at different temperatures (51-56° C.) for 3 min in a thermal cycler, followed by a 3-min cool-down at room temperature. The heated lysates were centrifuged at 15,000 rpm for 10 min at 4° C. to separate the soluble fractions from the precipitates. The supernatants were transferred to new microtubes and analyzed by SDS-PAGE, followed by western blot analysis described in Example 4. The integrated band intensities were quantified by ImageJ. The thermal curves were analyzed by nonlinear regression using Graph Pad Prism.

T1 sequence (Q9UJQ4 1-616 isoform Q9UJQ4-2): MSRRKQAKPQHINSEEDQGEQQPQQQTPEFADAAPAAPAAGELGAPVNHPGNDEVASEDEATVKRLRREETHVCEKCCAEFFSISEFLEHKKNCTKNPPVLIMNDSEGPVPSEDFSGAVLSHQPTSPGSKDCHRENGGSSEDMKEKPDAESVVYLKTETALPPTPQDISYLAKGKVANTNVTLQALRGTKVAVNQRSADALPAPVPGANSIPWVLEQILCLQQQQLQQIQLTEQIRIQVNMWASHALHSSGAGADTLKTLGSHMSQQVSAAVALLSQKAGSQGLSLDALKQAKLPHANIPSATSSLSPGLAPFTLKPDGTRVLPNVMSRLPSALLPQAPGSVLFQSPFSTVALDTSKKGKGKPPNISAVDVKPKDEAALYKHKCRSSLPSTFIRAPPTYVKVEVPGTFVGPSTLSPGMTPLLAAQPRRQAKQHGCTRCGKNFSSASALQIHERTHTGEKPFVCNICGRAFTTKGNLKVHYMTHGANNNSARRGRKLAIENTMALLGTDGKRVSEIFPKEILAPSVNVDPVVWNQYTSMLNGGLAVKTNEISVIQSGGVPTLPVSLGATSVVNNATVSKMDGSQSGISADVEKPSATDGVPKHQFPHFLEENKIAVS
T1 sequence (Q96SW2 whole entry): as the sequence (Q96SW2 whole entry) above
T1 sequence (Q16531 whole entry partner): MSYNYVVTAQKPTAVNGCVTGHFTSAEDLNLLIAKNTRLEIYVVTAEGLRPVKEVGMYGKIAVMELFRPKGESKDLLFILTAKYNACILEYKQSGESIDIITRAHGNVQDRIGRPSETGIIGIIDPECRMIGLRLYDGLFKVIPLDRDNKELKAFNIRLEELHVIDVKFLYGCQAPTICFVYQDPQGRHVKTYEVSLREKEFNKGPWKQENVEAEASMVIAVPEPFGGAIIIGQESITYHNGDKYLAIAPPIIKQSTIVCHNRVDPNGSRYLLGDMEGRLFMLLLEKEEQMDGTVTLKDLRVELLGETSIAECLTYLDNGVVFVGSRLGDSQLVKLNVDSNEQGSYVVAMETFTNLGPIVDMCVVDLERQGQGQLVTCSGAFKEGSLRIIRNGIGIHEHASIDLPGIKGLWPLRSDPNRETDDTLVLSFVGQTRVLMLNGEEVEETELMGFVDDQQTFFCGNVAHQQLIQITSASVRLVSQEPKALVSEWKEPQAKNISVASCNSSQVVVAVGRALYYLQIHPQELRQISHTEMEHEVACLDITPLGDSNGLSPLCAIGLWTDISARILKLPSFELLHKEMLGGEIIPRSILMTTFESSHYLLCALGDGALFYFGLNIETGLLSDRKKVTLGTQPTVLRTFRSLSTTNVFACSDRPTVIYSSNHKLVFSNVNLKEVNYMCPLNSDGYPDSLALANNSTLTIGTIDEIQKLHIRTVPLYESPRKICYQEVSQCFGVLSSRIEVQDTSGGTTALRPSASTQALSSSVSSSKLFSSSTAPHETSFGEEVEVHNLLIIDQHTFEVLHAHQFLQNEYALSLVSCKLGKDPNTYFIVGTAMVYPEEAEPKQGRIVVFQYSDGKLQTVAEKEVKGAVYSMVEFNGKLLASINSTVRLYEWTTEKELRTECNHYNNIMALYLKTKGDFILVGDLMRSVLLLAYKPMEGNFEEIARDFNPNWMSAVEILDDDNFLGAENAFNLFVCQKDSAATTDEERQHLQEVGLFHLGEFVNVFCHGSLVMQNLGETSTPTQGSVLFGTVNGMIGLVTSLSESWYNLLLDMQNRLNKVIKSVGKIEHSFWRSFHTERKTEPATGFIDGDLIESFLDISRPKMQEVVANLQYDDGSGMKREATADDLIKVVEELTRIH

For the molecule `COc1ccccc1NC(=O)Nc1ccc([N+](=O)[O-])cc1O` [QE-18-WG07], the main screen readout in assay [1] (8 μM, 6 h, H1299 cells overexpressing SALL4B fused with Nluc) is recorded as −31. In addition, the Dmax in assay [1] (NCI-H1299, SALL4B dual-luciferase reporter assay, 9 hours of treatment, read-out: maximum degradation (Dmax) of SALL4B_Nluc) worked out at 75%. For the same molecule, the “reduction in the amount of SALL4B protein” value in assay [1] (after 6 h of incubation in H1299 cells overexpressing SALL4B fused with Nluc) is 31%. Also, the “SALL4B_Luc Reporter Assay % SALL4B Downregulation” value in assay [1] (normalized to DMSO control, mean ± SD (n = 3), 8 μM, 6 h treatment, H1299 cells) is 29.8 ± 1.8%. Moreover, the ΔTm at 50 µM at CRBN is not above 5 °C.
